According to patent US20140309244A1, “NOVEL MICROBIOCIDES” (SYNGENTA PARTICIPATIONS AG, priority 2010, published 2014):

Assays:
[1] = system: Mycosphaerella graminicola (Septoria tritici); experiment: Mycosphaerella graminicola (Septoria tritici) / liquid culture (Septoria blotch); type: cell-based; details: Zymoseptoria tritici, PDB potato dextrose broth, 96-well plate, 24° C., 4-5 days after application, read-out: control of Mycosphaerella graminicola (inhibition of growth, photometric)
[2] = system: Phaeosphaeria nodorum (Septoria nodorum); experiment: Phaeosphaeria nodorum (Septoria nodorum) / wheat / leaf disc preventative (glume blotch); type: in vivo; details: Parastagonospora nodorum, foliar, wheat cv Kanzler leaf segments, inoculated 2 days after application, assessed 5-7 days after application, read-out: control of Phaeosphaeria nodorum (percent disease control compared to untreated)
[3] = system: Glomerella lagenarium (Colletotrichum lagenarium); experiment: Glomerella lagenarium (Colletotrichum lagenarium) / liquid culture (anthracnose); type: cell-based; details: Colletotrichum orbiculare, PDB potato dextrose broth, 96-well plate, 24° C., 3-4 days after application, read-out: control of Glomerella lagenarium (inhibition of growth, photometric)
[4] = system: Botryotinia fuckeliana (Botrytis cinerea); experiment: Botryotinia fuckeliana (Botrytis cinerea) / liquid culture (gray mould); type: cell-based; details: Vogels broth, 96-well plate, 24° C., 3-4 days after application, read-out: control of Botryotinia fuckeliana (inhibition of growth, photometric)
[5] = system: Monographella nivalis (Microdochium nivale); experiment: Monographella nivalis (Microdochium nivale) / liquid culture (foot rot cereals); type: cell-based; details: PDB potato dextrose broth, 96-well plate, 24° C., 4-5 days after application, read-out: control of Monographella nivalis (inhibition of growth, photometric)
Description: Monographella nivalis (Microdochium nivale)/Liquid Culture (Foot Rot Cereals): Conidia of the fungus from cryogenic storage were directly mixed into nutrient broth (PDB potato dextrose broth). After placing a DMSO solution of test compound into a 96-well microtiter plate at an application rate of 200 ppm, the nutrient broth containing the fungal spores was added. The test plates were incubated at 24° C. and the inhibition of growth was determined photometrically 4-5 days after application. […].103

[6] = system: Gaeumannomyces graminis; experiment: Gaeumannomyces graminis / liquid culture (take-all of cereals); type: cell-based; details: liquid culture of mycelial fragments, PDB potato dextrose broth, 96-well plate, 24° C., 4-5 days after application, read-out: control of Gaeumannomyces graminis (inhibition of growth, photometric)
[7] = system: Mycosphaerella arachidis (Cercospora arachidicola); experiment: Mycosphaerella arachidis (Cercospora arachidicola) / liquid culture (early leaf spot); type: cell-based; details: PDB potato dextrose broth, 96-well plate, 24° C., 4-5 days after application, read-out: control of Mycosphaerella arachidis (inhibition of growth, photometric)
[8] = system: Pyrenophora teres; experiment: Pyrenophora teres / barley / leaf disc preventative (net blotch); type: in vivo; details: foliar, barley cv Hasso leaf segments, inoculated two days after application, assessed 5-7 days after application, read-out: control of Pyrenophora teres (disease control compared to untreated)

| Structure (SMILES) | inhibition at 200 ppm [1] | inhibition at 200 ppm [4] | inhibition at 200 ppm [7] | other results |
| --- | --- | --- | --- | --- |
| CO/N=C(\C)c1cccc(CCCON=C(C)c2ccnc(-c3cccc(C)n3)n2)n1 (single isomer, unassigned) [P.63A] | ≥ 80% | – | – | pest or weed control at 200 ppm [2]: ≥ 80%; inhibition at 200 ppm [3]: ≥ 80% |
| CO/N=C(\C)c1cccc(CCCON=C(C)c2ccnc(-c3cccc(C)n3)n2)n1 (single isomer, unassigned) [P.63B] | – | ≥ 80% | – | – |
| C=C(CCO/N=C(\C)c1cccc(C)n1)c1cccc(/C(C)=N/OC)n1 [P.05, (E)-1-(6-{1-methylene-3-[1-(6-methyl-pyridin-2-yl)-eth-(E)-ylideneaminooxy]-propyl}-pyridin-2-yl)-ethanone O-methyl-oxime] | ≥ 80% | – | – | inhibition at 200 ppm [5]: ≥ 80% |
| C/C(=N\OCCCc1cccc(/C(C)=N/O)n1)c1cccc(C)n1 [P.11] | ≥ 80% | ≥ 80% | – | – |
| CO/N=C(\C)c1cccc(C(CCO/N=C(\C)c2cccc(C)n2)=C(Cl)Cl)n1 [P.13] | ≥ 80% | – | ≥ 80% | pest or weed control at 200 ppm [2]: ≥ 80%; inhibition at 200 ppm [6]: ≥ 80%; pest or weed control at 200 ppm [8]: ≥ 80% |
| CO/N=C(\C)c1cccc(CCCO/N=C(\C)c2cccc(-c3cc(C)ccc3C)n2)n1 [P.15] | ≥ 80% | ≥ 80% | ≥ 80% | pest or weed control at 200 ppm [8]: ≥ 80% |
| CO/N=C(\C)c1cccc(CCCO/N=C(\C)c2cccc(-c3ccccc3O)n2)n1 [P.16] | ≥ 80% | – | – | – |
| CO/N=C(\C)c1cccc(CCCO/N=C(\C)c2ccccn2)n1 [P.17] | – | ≥ 80% | – | – |
| C#Cc1cccc(/C(C)=N/OCCCc2cccc(/C(C)=N/OC)n2)n1 [P.18] | – | ≥ 80% | ≥ 80% | – |
| CO/N=C(\C)c1cccc(CCCO/N=C(\C)c2cccc(C3CC3)n2)n1 [P.20] | ≥ 80% | ≥ 80% | ≥ 80% | pest or weed control at 200 ppm [2]: ≥ 80%; pest or weed control at 200 ppm [8]: ≥ 80% |
| CO/N=C/c1cccc(CCCO/N=C(\C)c2cccc(C)n2)n1 [P.21] | – | ≥ 80% | – | – |
| CO/N=C(\C)c1cccc(CCCO/N=C(\C)c2cccc(C(OC)OC)n2)n1 [P.29] | ≥ 80% | ≥ 80% | ≥ 80% | – |
| CO/N=C(\C)c1cccc(CCCO/N=C(\C)c2cccc(-c3ccccc3)n2)n1 [P.33] | ≥ 80% | ≥ 80% | ≥ 80% | – |
| CO/N=C(\C)c1cccc(CCCO/N=C(\C)c2ccc3ccccc3n2)n1 [P.34] | ≥ 80% | ≥ 80% | – | – |
| CO/N=C(\C)c1cccc(CCCO/N=C/c2nc(C)ccc2O)n1 [P.35] | ≥ 80% | ≥ 80% | ≥ 80% | inhibition at 200 ppm [5]: ≥ 80%; inhibition at 200 ppm [6]: ≥ 80% |
| CO/N=C(\C)c1cccc(CCCO/N=C(\C)c2cc(C#N)ccn2)n1 [P.37] | – | – | – | inhibition at 200 ppm [6]: ≥ 80% |
| CO/N=C(\C)c1cccc(CCCO/N=C/c2cccc(C)n2)n1 [P.38] | ≥ 80% | ≥ 80% | ≥ 80% | inhibition at 200 ppm [5]: ≥ 80% |
| CO/N=C(\C)c1cccc(CCCO/N=C/c2cccc(Oc3ccccc3)n2)n1 [P.39] | ≥ 80% | ≥ 80% | ≥ 80% | – |
| CO/N=C(\C)c1cccc(CCCO/N=C(\C)c2cc(C(C)(C)C)ccn2)n1 [P.45] | ≥ 80% | ≥ 80% | ≥ 80% | – |
| CO/N=C(\C)c1cccc(CCCO/N=C(\C)c2nc(C(F)(F)F)ccc2C(=O)OC)n1 [P.46] | ≥ 80% | ≥ 80% | ≥ 80% | pest or weed control at 200 ppm [2]: ≥ 80%; inhibition at 200 ppm [6]: ≥ 80% |
| CCOC(=O)c1cc(C)cc(/C(C)=N/OCCCc2cccc(/C(C)=N/OC)n2)n1 [P.47] | ≥ 80% | ≥ 80% | ≥ 80% | – |
| C=CCOc1ccc(C)nc1/C=N/OCCCc1cccc(/C(C)=N/OC)n1 [P.49] | – | – | ≥ 80% | – |
| CO/N=C(\C)c1cccc(CCCO/N=C(\C)c2cccc(C#N)n2)n1 [P.50] | ≥ 80% | ≥ 80% | ≥ 80% | – |

| Structure (SMILES) | inhibition at 200 ppm [1] | inhibition at 200 ppm [4] | inhibition at 200 ppm [7] | other results |
| --- | --- | --- | --- | --- |
| CO/N=C(\C)c1cccc(CCCO/N=C(\c2ccccc2)c2ccccn2)n1 [P.53] | – | – | – | inhibition at 200 ppm [6]: ≥ 80% |
| CC/C(=N\OCCCc1cccc(/C(C)=N/OC)n1)c1ccccn1 [P.54] | – | – | – | inhibition at 200 ppm [6]: ≥ 80% |
| CO/N=C(\C)c1cccc(CCCO/N=C2\CCCc3ccc(C)nc32)n1 [P.57] | ≥ 80% | ≥ 80% | ≥ 80% | inhibition at 200 ppm [5]: ≥ 80%; pest or weed control at 200 ppm [2]: ≥ 80%; inhibition at 200 ppm [6]: ≥ 80%; inhibition at 200 ppm [3]: ≥ 80% |
| CO/N=C(\C)c1cccc(CCCO/N=C2\CCCc3cnc(C)nc32)n1 [P.60, 2-Methyl-6,7-dihydro-5H-quinazolin-8-one O-[3-(6-(1-((E)-methoxyimino)-ethyl)-pyridin-2-yl)-propyl]-oxime] | – | – | ≥ 80% | – |
| CO/N=C(\C)c1cccc(CCCO/N=C2\CCCc3cnc(-c4ccccc4)nc32)n1 [P.61, 2-Phenyl-6,7-dihydro-5H-quinazolin-8-one O-[3-(6-(1-((E)-methoxyimino)-ethyl)-pyridin-2-yl)-propyl]-oxime] | ≥ 80% | ≥ 80% | ≥ 80% | pest or weed control at 200 ppm [2]: ≥ 80%; inhibition at 200 ppm [6]: ≥ 80% |
| CO/N=C(\C)c1cccc(CCCO/N=C2\CCCc3cnc(-c4cccc(C)n4)nc32)n1 [P.64] | – | ≥ 80% | – | – |
| CO/N=C(\C)c1cccc(CCCO/N=C2\CCCc3cncnc32)n1 [P.65] | – | ≥ 80% | – | – |
| CO/N=C(\C)c1cccc(CCCO/N=C(\C)c2nc(OC)cc(OC)n2)n1 [P.66] | – | ≥ 80% | ≥ 80% | – |
| CCOc1cc(OCC)nc(/C(C)=N/OCCCc2cccc(/C(C)=N/OC)n2)n1 [P.67] | ≥ 80% | ≥ 80% | ≥ 80% | – |
| CO/N=C(\C)c1cccc(CCCO/N=C(\c2ccccc2)c2nc(OC)cc(OC)n2)n1 [P.68] | ≥ 80% | – | ≥ 80% | – |
| CO/N=C(\C)c1cccc(CCCO/N=C(\C)c2cc(C)c3ccccc3n2)n1 [P.71] | – | ≥ 80% | – | – |
| CO/N=C(\C)c1cccc(CCCO/N=C(\C)c2cccc(CCCOCc3ccccc3)n2)n1 [P.75] | ≥ 80% | ≥ 80% | ≥ 80% | – |
| CO/N=C(\C)c1cccc(CCCO/N=C(\C)c2cccc(CCCO)n2)n1 [P.77] | ≥ 80% | ≥ 80% | ≥ 80% | – |
| CO/N=C(\C)c1cccc(CCCO/N=C(\C)c2cccc(C#CCO)n2)n1 [P.78] | ≥ 80% | – | ≥ 80% | inhibition at 200 ppm [5]: ≥ 80% |
| CO/N=C(\C)c1cccc(CCCO/N=C(\C)c2cccc(C#CC(C)(C)C)n2)n1 [P.79] | – | ≥ 80% | ≥ 80% | – |
| CO/N=C(\C)c1cccc(CCCO/N=C2\CCCc3c2nc2cnccc2c3C)n1 [P.80] | ≥ 80% | ≥ 80% | ≥ 80% | inhibition at 200 ppm [5]: ≥ 80% |
| CCCCc1c2c(nc3ccc(Cl)cc13)/C(=N/OCCCc1cccc(/C(C)=N/OC)n1)CCC2 [P.85] | ≥ 80% | ≥ 80% | – | – |
| CO/N=C(\C)c1cccc(CCCO/N=C2\COCc3c2nc2ccccc2c3C)n1 [P.89] | ≥ 80% | ≥ 80% | ≥ 80% | – |
| CO/N=C(\C)c1cccc(CCCO/N=C2\CCCc3c2nc2c(C)cccc2c3C)n1 [P.90] | ≥ 80% | ≥ 80% | ≥ 80% | inhibition at 200 ppm [3]: ≥ 80% |
| CO/N=C(\C)c1cccc(CCCO/N=C2\CCCc3c2nc2ccccc2c3-c2ccccc2)n1 [P.99] | ≥ 80% | ≥ 80% | ≥ 80% | inhibition at 200 ppm [5]: ≥ 80%; inhibition at 200 ppm [3]: ≥ 80% |
| CO/N=C(\C)c1cccc(CCCON=C(CC#N)c2ccccn2)n1 [P.105] | – | – | – | inhibition at 200 ppm [6]: ≥ 80% |
| CO/N=C(\C)c1cccc(CCCON=C(c2ccc(-n3cccc3)c(C)c2)c2ccccn2)n1 [P.107] | – | – | ≥ 80% | – |
| CO/N=C(\C)c1cccc(CCCON=C(CCN(C)C)c2cccc(Br)n2)n1 [P.108] | – | – | ≥ 80% | – |
